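Step 1: Grow cells in 96-well plates. Step 2: Expose to compound for 48 hours at 5 concentrations. Step 3: Interpolate endpoints linearly; if unreached, use highest concentration. GI50 = concentration required for 50% inhibition of growth.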 Active and inactive are the calls of the source. Cut-off read from the data, not from the text of the source: active = GI50 up to about 1.1 µM and inactive = higher.
Experiments:
Experiment in all cases: NCI anticancer screen, dose series, 48 h
RXF 393 = system: RXF 393
IGROV-1 = system: IGROV-1
M14 = system: M14
SK-MEL-2 = system: SK-MEL-2
HCC 2998 = system: HCC 2998
Malme-3M = system: Malme-3M
SK-OV-3 = system: SK-OV-3
A549 = system: A549
A498 = system: A498
CCRF-CEM = system: CCRF-CEM
OVCAR-3 = system: OVCAR-3
SW-620 = system: SW-620
HOP-62 = system: HOP-62
SK-MEL-28 = system: SK-MEL-28
RPMI-8226 = system: RPMI-8226

Measured: GI50

CN(C)NC1=C([N+](=O)[O-])C=NN(c2ccccc2)C1
inactive: RXF 393 1.93 µM | IGROV-1 2.19 µM | M14 1.82 µM | SK-MEL-2 1.71 µM | HCC 2998 1.79 µM | Malme-3M 1.96 µM | SK-OV-3 1.97 µM | A549 2.1 µM | A498 20.9 µM | CCRF-CEM 1.79 µM | OVCAR-3 1.85 µM | SW-620 1.89 µM | HOP-62 2.16 µM | SK-MEL-28 1.81 µM

CN(C)CCNC(=O)c1cccc2c1nc(-c1ccccn1)c1ccccc12
inactive: RXF 393 14.6 µM | IGROV-1 16.1 µM | M14 15.8 µM | SK-MEL-2 18.8 µM | HCC 2998 15.7 µM | SK-OV-3 17.4 µM | A549 11.8 µM | A498 13.6 µM | CCRF-CEM 13.5 µM | OVCAR-3 17.4 µM | SW-620 11.2 µM | HOP-62 15.1 µM | SK-MEL-28 15.6 µM

COc1ccc(OC)c(NC(=O)CCC/C(CC(=O)c2ccc(O)c(OC)c2)=N\NC(=O)C[N+](C)(C)C)c1
inactive: IGROV-1 > 100 µM | M14 > 100 µM | SK-MEL-2 > 100 µM | HCC 2998 > 100 µM | Malme-3M > 100 µM | SK-OV-3 > 100 µM | RPMI-8226 79.3 µM | A549 > 100 µM | A498 > 100 µM | CCRF-CEM > 100 µM | OVCAR-3 > 100 µM | SW-620 > 100 µM | HOP-62 > 100 µM | SK-MEL-28 > 100 µM

C#Cc1cccc(N2C(=O)CC(=P(c3ccccc3)(c3ccccc3)c3ccccc3)C2=O)c1
inactive: M14 47.6 µM | SK-MEL-2 84.7 µM | HCC 2998 70.8 µM | Malme-3M 80 µM | SK-OV-3 > 100 µM | RPMI-8226 6.4 µM | A549 70 µM | A498 > 100 µM | CCRF-CEM 50.1 µM | OVCAR-3 31.5 µM | SW-620 54.6 µM | HOP-62 67.1 µM | SK-MEL-28 81.3 µM

Cc1cc(NS(=O)(=O)c2ccc(Nc3c4ccccc4nc4c(C(=O)Nc5ccc(S(=O)(=O)N=C(N)N)cc5)ccc(Cl)c34)cc2)no1
inactive: RXF 393 29 µM | M14 > 100 µM | HCC 2998 38.5 µM | Malme-3M 46.7 µM | SK-OV-3 31.7 µM | RPMI-8226 29.8 µM | A549 > 100 µM | A498 44.6 µM | OVCAR-3 21.5 µM | HOP-62 22.1 µM | SK-MEL-28 54.5 µM

CC1CC(C)C(=O)C(C(=O)CC2CC(=O)NC2=O)C1 (stereo not given)
inactive: RXF 393 > 100 µM | IGROV-1 > 100 µM | M14 > 100 µM | HCC 2998 > 100 µM | Malme-3M > 100 µM | SK-OV-3 > 100 µM | RPMI-8226 > 100 µM | A549 > 100 µM | A498 > 100 µM | CCRF-CEM > 100 µM | OVCAR-3 > 100 µM | SW-620 > 100 µM | HOP-62 > 100 µM | SK-MEL-28 > 100 µM

COc1cc(Br)c(/C=N/N=C(\N)NO)cc1OC
inactive: RXF 393 21.9 µM | IGROV-1 30.4 µM | M14 16.4 µM | SK-MEL-2 26.1 µM | HCC 2998 12.3 µM | Malme-3M 21.1 µM | SK-OV-3 10.6 µM | RPMI-8226 > 100 µM | A549 10.4 µM | A498 32.8 µM | CCRF-CEM 30.1 µM | OVCAR-3 33.2 µM | SW-620 35.1 µM | HOP-62 14.1 µM | SK-MEL-28 17.5 µM

[O-][S+]1CSCS1 (stereo not given)
inactive: RXF 393 > 100 µM | IGROV-1 > 100 µM | M14 > 100 µM | SK-MEL-2 > 100 µM | HCC 2998 > 100 µM | Malme-3M > 100 µM | SK-OV-3 > 100 µM | A549 > 100 µM | A498 > 100 µM | CCRF-CEM > 100 µM | OVCAR-3 > 100 µM | SW-620 > 100 µM | HOP-62 > 100 µM | SK-MEL-28 > 100 µM

COC(=O)c1c(C)oc2ccc(OC(C)=O)cc12
inactive: RXF 393 > 100 µM | IGROV-1 > 100 µM | M14 > 100 µM | SK-MEL-2 > 100 µM | HCC 2998 30.5 µM | Malme-3M > 100 µM | SK-OV-3 > 100 µM | RPMI-8226 > 100 µM | A549 > 100 µM | A498 > 100 µM | CCRF-CEM > 100 µM | OVCAR-3 > 100 µM | SW-620 > 100 µM | HOP-62 > 100 µM | SK-MEL-28 > 100 µM

Cc1cc([N+](=O)[O-])c(S(=O)(=O)c2ccccc2)c([N+](=O)[O-])c1
inactive: RXF 393 2.2 µM | IGROV-1 12.6 µM | M14 5.93 µM | SK-MEL-2 20 µM | HCC 2998 21.2 µM | Malme-3M 13.6 µM | SK-OV-3 24.8 µM | RPMI-8226 14.8 µM | A549 23.6 µM | A498 18.2 µM | CCRF-CEM 3.52 µM | OVCAR-3 5.62 µM | SW-620 3.95 µM | HOP-62 21.7 µM | SK-MEL-28 18.9 µM

COc1ccc(N(C)Sc2ccccc2)cc1
inactive: RXF 393 19.9 µM | IGROV-1 19.9 µM | M14 52.5 µM | SK-MEL-2 65.5 µM | HCC 2998 > 100 µM | Malme-3M > 100 µM | SK-OV-3 > 100 µM | RPMI-8226 36.1 µM | A549 39.4 µM | CCRF-CEM 6.38 µM | OVCAR-3 52.4 µM | SW-620 43.7 µM | HOP-62 95.5 µM | SK-MEL-28 55.2 µM

CN(C)c1ccc2c(c1)C(=O)N(OS(=O)(=O)c1ccc([N+](=O)[O-])cc1)C2=O
inactive: RXF 393 13.9 µM | IGROV-1 19.7 µM | M14 17.4 µM | SK-MEL-2 29.2 µM | HCC 2998 24.6 µM | Malme-3M 31.2 µM | SK-OV-3 > 100 µM | A549 39.2 µM | A498 59.7 µM | CCRF-CEM 18.7 µM | OVCAR-3 > 10 µM | SW-620 20.4 µM | HOP-62 37.1 µM | SK-MEL-28 26.1 µM

O=C(c1nc2ccc(Cl)cc2[nH]c1=O)C(O)c1ccco1 (stereo not given)
inactive: RXF 393 > 100 µM | IGROV-1 45.9 µM | M14 29.4 µM | SK-MEL-2 87.1 µM | HCC 2998 44 µM | Malme-3M > 100 µM | SK-OV-3 > 100 µM | A549 50 µM | CCRF-CEM 1.37 µM | OVCAR-3 46 µM | SW-620 > 100 µM | SK-MEL-28 > 100 µM

S=C1OC2C3C4CC5C3C(O1)C1C5C4C21 (stereo not given)
inactive: RXF 393 > 100 µM | IGROV-1 > 100 µM | M14 > 100 µM | HCC 2998 > 100 µM | Malme-3M > 100 µM | SK-OV-3 > 100 µM | RPMI-8226 > 100 µM | A549 > 100 µM | A498 > 100 µM | CCRF-CEM > 100 µM | OVCAR-3 > 100 µM | SW-620 > 100 µM | HOP-62 > 100 µM | SK-MEL-28 > 100 µM

O=C(c1ccc(Cl)cc1)c1ccc(OCCCOc2ccc(C(=O)c3ccc(Cl)cc3)cc2)cc1
inactive: RXF 393 88.3 µM | IGROV-1 > 100 µM | M14 > 100 µM | SK-MEL-2 > 100 µM | HCC 2998 > 100 µM | Malme-3M > 100 µM | SK-OV-3 > 100 µM | RPMI-8226 > 100 µM | A549 > 100 µM | CCRF-CEM > 100 µM | OVCAR-3 > 100 µM | SW-620 > 100 µM | HOP-62 > 100 µM | SK-MEL-28 > 100 µM

N#Cc1c(-c2ccco2)cc(-c2ccc(N)cc2)[nH]c1=O
inactive: RXF 393 > 100 µM | IGROV-1 > 100 µM | M14 > 100 µM | HCC 2998 > 100 µM | Malme-3M > 100 µM | SK-OV-3 > 100 µM | RPMI-8226 > 100 µM | A549 > 100 µM | A498 > 100 µM | CCRF-CEM > 100 µM | OVCAR-3 > 100 µM | SW-620 > 100 µM | HOP-62 > 100 µM | SK-MEL-28 > 100 µM

C=C=C(C(=O)OC)[S+]([O-])c1ccc([N+](=O)[O-])cc1[N+](=O)[O-] (stereo not given)
inactive: RXF 393 30.7 µM | IGROV-1 > 69.8 µM | M14 30.7 µM | SK-MEL-2 44.5 µM | HCC 2998 14.7 µM | Malme-3M > 56.1 µM | SK-OV-3 > 84.7 µM | RPMI-8226 21.7 µM | A549 52.7 µM | A498 > 100 µM | CCRF-CEM 12 µM | OVCAR-3 25.3 µM | SW-620 14.5 µM | HOP-62 > 45.3 µM | SK-MEL-28 34.7 µM

COc1ccc(C(=O)NCCC2=CCCCC2)cc1
inactive: RXF 393 > 100 µM | IGROV-1 > 100 µM | SK-MEL-2 > 100 µM | Malme-3M > 100 µM | RPMI-8226 > 100 µM | A549 > 100 µM | A498 85.7 µM | CCRF-CEM > 100 µM | OVCAR-3 > 100 µM | SW-620 > 100 µM | HOP-62 > 100 µM | SK-MEL-28 > 100 µM

COCOCCCCCO[Si](C)(C)C(C)(C)C
inactive: RXF 393 16.6 µM | IGROV-1 32.6 µM | M14 19 µM | SK-MEL-2 16 µM | HCC 2998 17.7 µM | Malme-3M 18.2 µM | SK-OV-3 40.6 µM | RPMI-8226 16.5 µM | A549 19.5 µM | A498 29.4 µM | CCRF-CEM 16.7 µM | OVCAR-3 14.4 µM | SW-620 17.3 µM | SK-MEL-28 35.1 µM

O=C(Nc1ccc(Br)cc1)C(=O)C(C(=O)c1ccccc1F)C1OC(=O)c2ccccc21 (stereo not given)
inactive: IGROV-1 31.4 µM | M14 16.5 µM | SK-MEL-2 21.8 µM | HCC 2998 16.9 µM | Malme-3M 15.3 µM | SK-OV-3 27.5 µM | RPMI-8226 17.8 µM | A549 39.7 µM | A498 40.1 µM | CCRF-CEM 18.6 µM | OVCAR-3 39.8 µM | SW-620 31.9 µM | HOP-62 22.8 µM | SK-MEL-28 18.7 µM
